Measurements published in the kinase profiling compilation of Christmann-Franck et al. (2016).

How the values were obtained:
Test in all cases: KINOMEscan competition binding
Details in all cases: compound 0.1 µM
[1] = tested on: ABL1 (human), P00519 [M351T]
[2] = tested on: ABL1 (human), P00519 [Q252H]
[3] = target: ADCK4 (human) (UniProt Q96D53)
[4] = target: CAMK1G (human) (UniProt Q96NX5)
[5] = target: CAMK2D (human) (UniProt Q13557)
[6] = target: CDC2L2 (human) (UniProt Q9UQ88)
[7] = target: CDK19 (human) (UniProt Q9BWU1)
CDK19 (human), sequence (Q9BWU1 whole entry, looked up): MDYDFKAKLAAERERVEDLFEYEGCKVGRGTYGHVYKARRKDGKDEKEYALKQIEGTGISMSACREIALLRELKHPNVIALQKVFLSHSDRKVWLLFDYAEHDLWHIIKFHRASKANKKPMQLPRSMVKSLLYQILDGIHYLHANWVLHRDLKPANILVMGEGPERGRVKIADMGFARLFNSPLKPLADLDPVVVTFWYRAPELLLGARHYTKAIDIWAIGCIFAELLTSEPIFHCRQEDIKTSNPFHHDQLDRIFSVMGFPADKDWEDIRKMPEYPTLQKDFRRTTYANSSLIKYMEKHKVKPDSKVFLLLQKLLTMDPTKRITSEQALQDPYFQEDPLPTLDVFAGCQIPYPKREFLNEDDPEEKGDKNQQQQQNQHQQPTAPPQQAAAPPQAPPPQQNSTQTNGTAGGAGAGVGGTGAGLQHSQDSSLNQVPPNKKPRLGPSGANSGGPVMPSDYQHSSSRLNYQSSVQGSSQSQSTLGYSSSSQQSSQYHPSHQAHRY

[8] = target: CDK8 (human) (UniProt P49336)
[9] = target: CDKL3 (human) (UniProt Q8IVW4)
[10] = target: CSNK1A1L (human) (UniProt Q8N752)
CSNK1A1L (human), sequence (Q8N752 whole entry, looked up): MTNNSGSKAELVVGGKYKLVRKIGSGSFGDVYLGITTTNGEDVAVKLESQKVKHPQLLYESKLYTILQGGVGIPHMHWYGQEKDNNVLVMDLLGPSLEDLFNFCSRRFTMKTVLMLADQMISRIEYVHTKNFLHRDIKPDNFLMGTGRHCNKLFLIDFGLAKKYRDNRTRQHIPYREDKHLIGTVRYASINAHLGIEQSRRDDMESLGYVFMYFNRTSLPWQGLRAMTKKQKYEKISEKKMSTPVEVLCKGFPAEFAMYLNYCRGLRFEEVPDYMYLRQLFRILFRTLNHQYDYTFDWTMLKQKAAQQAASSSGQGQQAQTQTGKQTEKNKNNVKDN

[11] = target: DCLK3 (human) (UniProt Q9C098)
[12] = tested on: EGFR (human), P00533 [G719S]
[13] = target: EPHA3 (human) (UniProt P29320)
[14] = target: EPHA5 (human) (UniProt P54756)
[15] = tested on: FGFR3 (human), P22607 [G697C]
[16] = target: HUNK (human) (UniProt P57058)
HUNK (human), sequence (P57058 whole entry, looked up): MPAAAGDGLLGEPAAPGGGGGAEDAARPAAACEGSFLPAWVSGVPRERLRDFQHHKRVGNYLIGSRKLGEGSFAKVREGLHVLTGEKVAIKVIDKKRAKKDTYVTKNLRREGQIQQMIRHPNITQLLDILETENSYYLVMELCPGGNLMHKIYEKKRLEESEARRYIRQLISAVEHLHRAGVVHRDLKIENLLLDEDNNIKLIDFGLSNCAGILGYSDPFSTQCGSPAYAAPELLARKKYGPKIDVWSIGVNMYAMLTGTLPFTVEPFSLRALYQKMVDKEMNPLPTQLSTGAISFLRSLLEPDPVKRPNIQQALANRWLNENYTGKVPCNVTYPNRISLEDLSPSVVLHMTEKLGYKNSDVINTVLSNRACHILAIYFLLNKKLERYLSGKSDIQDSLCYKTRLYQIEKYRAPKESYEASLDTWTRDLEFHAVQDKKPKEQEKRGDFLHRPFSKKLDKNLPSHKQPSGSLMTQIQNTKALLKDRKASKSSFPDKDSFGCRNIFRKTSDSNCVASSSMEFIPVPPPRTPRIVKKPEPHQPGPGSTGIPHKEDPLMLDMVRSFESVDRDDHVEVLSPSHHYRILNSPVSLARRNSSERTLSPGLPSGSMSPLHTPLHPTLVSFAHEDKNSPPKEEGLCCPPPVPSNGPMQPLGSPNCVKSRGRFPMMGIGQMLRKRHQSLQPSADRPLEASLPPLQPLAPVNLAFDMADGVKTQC

[17] = target: JAK1 JH1 catalytic (human) (UniProt P23458)
[18] = target: MAP3K7 (human) (UniProt O43318)
[19] = target: MAP3K9 (human) (UniProt P80192)
[20] = target: MARK2 (human) (UniProt Q7KZI7)
[21] = target: MTOR (human) (UniProt P42345)
[22] = target: MYLK2 (human) (UniProt Q9H1R3)
[23] = target: MYLK4 (human) (UniProt Q86YV6)
[24] = target: PAK3 (human) (UniProt O75914)
[25] = target: PAK7 (human) (UniProt Q9P286)
[26] = target: PIK3CD (human) (UniProt O00329)
[27] = target: RPS6KA1 KD2 (human) (UniProt Q15418)
[28] = target: RPS6KA2 KD1 (human) (UniProt Q15349)
RPS6KA2 KD1 (human), sequence (Q15349 whole entry, looked up): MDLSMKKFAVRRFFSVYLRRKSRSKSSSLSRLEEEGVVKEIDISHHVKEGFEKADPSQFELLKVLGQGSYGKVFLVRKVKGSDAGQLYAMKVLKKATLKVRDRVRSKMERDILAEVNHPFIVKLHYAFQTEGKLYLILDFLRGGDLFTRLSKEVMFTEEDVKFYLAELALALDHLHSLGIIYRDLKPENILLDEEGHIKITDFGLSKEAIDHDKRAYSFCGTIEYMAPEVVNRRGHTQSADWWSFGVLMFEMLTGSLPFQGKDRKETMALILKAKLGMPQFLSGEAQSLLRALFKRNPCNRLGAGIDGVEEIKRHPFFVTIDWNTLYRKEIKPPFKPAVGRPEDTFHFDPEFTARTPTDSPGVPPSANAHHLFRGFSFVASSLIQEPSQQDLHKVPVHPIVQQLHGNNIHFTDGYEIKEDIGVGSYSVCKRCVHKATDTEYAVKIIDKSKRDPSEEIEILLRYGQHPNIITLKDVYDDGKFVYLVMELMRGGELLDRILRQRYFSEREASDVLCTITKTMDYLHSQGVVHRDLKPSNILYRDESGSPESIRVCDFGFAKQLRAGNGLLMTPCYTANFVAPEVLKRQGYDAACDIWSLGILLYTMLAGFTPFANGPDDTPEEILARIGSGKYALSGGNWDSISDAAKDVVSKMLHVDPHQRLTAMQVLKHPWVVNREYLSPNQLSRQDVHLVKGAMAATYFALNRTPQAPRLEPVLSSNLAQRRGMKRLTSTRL

[29] = target: RPS6KA6 KD1 (human) (UniProt Q9UK32)
[30] = target: SGK1 (human) (UniProt O00141)
[31] = target: SIK1 (human) (UniProt P57059)
[32] = target: SIK3 (human) (UniProt Q9Y2K2)
[33] = target: STK3 (human) (UniProt Q13188)
[34] = target: STK38 (human) (UniProt Q15208)
STK38 (human), sequence (Q15208 whole entry, looked up): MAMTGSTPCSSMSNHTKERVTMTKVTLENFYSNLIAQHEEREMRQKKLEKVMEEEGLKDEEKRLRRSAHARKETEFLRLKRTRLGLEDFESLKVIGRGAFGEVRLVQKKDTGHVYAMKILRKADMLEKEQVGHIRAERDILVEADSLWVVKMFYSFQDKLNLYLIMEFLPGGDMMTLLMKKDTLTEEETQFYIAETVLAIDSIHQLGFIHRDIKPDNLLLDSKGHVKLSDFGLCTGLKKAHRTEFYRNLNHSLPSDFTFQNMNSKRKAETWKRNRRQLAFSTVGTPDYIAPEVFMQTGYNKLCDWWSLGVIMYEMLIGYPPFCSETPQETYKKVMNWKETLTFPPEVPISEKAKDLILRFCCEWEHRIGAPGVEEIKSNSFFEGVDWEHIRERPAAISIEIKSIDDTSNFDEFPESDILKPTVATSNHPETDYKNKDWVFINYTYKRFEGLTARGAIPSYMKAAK

[35] = target: STK4 (human) (UniProt Q13043)
STK4 (human), sequence (Q13043 whole entry, looked up): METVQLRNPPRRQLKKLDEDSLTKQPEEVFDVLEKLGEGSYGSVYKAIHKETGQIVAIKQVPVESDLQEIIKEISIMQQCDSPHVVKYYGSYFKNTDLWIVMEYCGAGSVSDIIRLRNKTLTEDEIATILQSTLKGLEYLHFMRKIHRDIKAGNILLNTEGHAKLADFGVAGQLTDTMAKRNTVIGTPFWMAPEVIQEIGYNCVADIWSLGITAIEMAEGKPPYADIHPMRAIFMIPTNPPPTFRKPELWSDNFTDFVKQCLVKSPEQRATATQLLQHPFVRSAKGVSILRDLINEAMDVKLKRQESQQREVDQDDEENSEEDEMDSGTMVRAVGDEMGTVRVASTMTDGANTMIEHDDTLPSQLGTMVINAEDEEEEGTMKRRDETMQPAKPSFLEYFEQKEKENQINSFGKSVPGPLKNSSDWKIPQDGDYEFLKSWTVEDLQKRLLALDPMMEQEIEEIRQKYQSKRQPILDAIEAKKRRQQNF

[36] = target: TAOK1 (human) (UniProt Q7L7X3)
TAOK1 (human), sequence (Q7L7X3 whole entry, looked up): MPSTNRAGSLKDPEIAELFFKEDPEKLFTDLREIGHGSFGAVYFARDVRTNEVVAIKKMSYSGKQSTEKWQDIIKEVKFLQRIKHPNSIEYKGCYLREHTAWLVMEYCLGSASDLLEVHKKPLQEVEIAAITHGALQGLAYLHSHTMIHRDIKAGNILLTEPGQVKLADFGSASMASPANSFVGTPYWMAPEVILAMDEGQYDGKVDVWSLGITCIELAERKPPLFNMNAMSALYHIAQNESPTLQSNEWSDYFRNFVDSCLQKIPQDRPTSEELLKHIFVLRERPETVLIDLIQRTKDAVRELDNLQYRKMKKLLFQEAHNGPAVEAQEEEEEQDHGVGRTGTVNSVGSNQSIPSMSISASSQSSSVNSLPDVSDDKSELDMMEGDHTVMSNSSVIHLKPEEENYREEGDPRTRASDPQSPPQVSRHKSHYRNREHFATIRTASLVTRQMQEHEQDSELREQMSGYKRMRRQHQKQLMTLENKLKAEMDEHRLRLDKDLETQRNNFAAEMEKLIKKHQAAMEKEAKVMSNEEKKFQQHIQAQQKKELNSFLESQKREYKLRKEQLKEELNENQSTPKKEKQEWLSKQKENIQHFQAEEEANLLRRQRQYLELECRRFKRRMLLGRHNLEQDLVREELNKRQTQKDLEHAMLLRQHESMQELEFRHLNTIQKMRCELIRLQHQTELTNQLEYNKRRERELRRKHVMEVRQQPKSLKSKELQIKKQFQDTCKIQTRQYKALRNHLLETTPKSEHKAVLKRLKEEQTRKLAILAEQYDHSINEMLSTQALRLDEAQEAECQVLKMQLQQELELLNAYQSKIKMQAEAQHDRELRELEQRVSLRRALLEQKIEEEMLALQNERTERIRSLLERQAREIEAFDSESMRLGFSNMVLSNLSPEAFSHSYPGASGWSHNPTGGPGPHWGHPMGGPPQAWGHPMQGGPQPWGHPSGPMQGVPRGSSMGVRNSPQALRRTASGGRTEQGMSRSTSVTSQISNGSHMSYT

[37] = target: TRPM6 (human) (UniProt Q9BX84)
[38] = target: TXK (human) (UniProt P42681)
[39] = target: WEE2 (human) (UniProt P0C1S8)
[40] = target: ZAP70 (human) (UniProt P43403)

CDC2L2 (human), sequence (Q9UQ88 whole entry, looked up): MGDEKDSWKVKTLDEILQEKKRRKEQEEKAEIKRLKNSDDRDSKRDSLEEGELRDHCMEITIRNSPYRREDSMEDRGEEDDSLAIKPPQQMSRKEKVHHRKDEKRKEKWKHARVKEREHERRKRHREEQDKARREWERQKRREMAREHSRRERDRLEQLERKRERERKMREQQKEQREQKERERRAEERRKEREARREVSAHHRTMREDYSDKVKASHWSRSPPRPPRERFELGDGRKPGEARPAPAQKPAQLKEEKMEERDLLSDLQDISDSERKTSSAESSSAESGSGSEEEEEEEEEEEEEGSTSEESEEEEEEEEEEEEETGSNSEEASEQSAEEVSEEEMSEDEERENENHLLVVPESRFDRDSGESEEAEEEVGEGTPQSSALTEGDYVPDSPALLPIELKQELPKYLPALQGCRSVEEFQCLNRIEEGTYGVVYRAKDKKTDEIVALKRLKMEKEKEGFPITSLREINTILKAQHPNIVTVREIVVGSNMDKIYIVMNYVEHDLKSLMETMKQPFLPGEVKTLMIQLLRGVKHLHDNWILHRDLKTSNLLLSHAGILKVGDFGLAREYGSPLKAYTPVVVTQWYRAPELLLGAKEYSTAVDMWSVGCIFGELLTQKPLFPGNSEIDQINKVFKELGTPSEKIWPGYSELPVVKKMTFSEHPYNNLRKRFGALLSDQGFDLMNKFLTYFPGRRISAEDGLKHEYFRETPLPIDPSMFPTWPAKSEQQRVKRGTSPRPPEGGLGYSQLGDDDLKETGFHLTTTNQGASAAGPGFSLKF

`CCc1ccc(C(=O)Nc2cc(CN3CCN(C)CC3)cc(C(F)(F)F)c2)cc1C#Cc1cnc2ccnn2c1` gave a kinase still bound, per cent of control [1] of 100%, a kinase still bound, per cent of control [2] of 100% and a kinase still bound, per cent of control [3] of 100%. For the same molecule, the kinase still bound, per cent of control [4] was 71%, the kinase still bound, per cent of control [5] was 78% and the kinase still bound, per cent of control [6] was 100%. For the same molecule, the kinase still bound, per cent of control [7] was 90%, the kinase still bound, per cent of control [8] was 76% and the kinase still bound, per cent of control [9] was 56%. It also gave a kinase still bound, per cent of control [10] of 83%, a kinase still bound, per cent of control [11] of 100% and a kinase still bound, per cent of control [12] of 100%. The kinase still bound, per cent of control [13] was 47%, the kinase still bound, per cent of control [14] was 100% and the kinase still bound, per cent of control [15] was 90%. It also gave a kinase still bound, per cent of control [16] of 100%, a kinase still bound, per cent of control [17] of 100% and a kinase still bound, per cent of control [18] of 100%. It also gave a kinase still bound, per cent of control [19] of 100%, a kinase still bound, per cent of control [20] of 100% and a kinase still bound, per cent of control [21] of 100%. It also gave a kinase still bound, per cent of control [22] of 100%, a kinase still bound, per cent of control [23] of 93% and a kinase still bound, per cent of control [24] of 41%. The kinase still bound, per cent of control [25] was 85%, the kinase still bound, per cent of control [26] was 74% and the kinase still bound, per cent of control [27] was 100%. The kinase still bound, per cent of control [28] was 78%, the kinase still bound, per cent of control [29] was 100% and the kinase still bound, per cent of control [30] was 93%. For the same molecule, the kinase still bound, per cent of control [31] was 100%, the kinase still bound, per cent of control [32] was 100% and the kinase still bound, per cent of control [33] was 100%. It also gave a kinase still bound, per cent of control [34] of 93%, a kinase still bound, per cent of control [35] of 63% and a kinase still bound, per cent of control [36] of 100%. For the same molecule, the kinase still bound, per cent of control [37] was 90%, the kinase still bound, per cent of control [38] was 79% and the kinase still bound, per cent of control [39] was 84%. It also gave a kinase still bound, per cent of control [40] of 100%.
